# Test results published in US9695171B2, “3,4-disubstituted-1 H-pyrrolo[2,3-b]pyridines and 4,5-disubstituted-7H-pyrrolo[2,3-c]pyridazines as LRRK2 inhibitors” (Pfizer Inc., priority 2013, dated 2017).
# Target: T1, GST-tagged truncated LRRK2 (Homo sapiens, UniProt Q5S007)
# T1 construct: GST-tagged truncated LRRK2 from Invitrogen (Cat # PV4874); GST; purchased Invitrogen PV4874
# Experiment: LRRK2 kinase assay (Lantha Screen)
# Format: biochemical
# Conditions: 1 mM ATP (head); a = geometric mean of >=4 determinations, b = single determination; read-out: LRRK2 LANTHA EC50 at 1 mM ATP; Geometric mean of 2-3 determinations unless otherwise indicated
# T1 sequence (Q5S007 970-2527 limits assumed): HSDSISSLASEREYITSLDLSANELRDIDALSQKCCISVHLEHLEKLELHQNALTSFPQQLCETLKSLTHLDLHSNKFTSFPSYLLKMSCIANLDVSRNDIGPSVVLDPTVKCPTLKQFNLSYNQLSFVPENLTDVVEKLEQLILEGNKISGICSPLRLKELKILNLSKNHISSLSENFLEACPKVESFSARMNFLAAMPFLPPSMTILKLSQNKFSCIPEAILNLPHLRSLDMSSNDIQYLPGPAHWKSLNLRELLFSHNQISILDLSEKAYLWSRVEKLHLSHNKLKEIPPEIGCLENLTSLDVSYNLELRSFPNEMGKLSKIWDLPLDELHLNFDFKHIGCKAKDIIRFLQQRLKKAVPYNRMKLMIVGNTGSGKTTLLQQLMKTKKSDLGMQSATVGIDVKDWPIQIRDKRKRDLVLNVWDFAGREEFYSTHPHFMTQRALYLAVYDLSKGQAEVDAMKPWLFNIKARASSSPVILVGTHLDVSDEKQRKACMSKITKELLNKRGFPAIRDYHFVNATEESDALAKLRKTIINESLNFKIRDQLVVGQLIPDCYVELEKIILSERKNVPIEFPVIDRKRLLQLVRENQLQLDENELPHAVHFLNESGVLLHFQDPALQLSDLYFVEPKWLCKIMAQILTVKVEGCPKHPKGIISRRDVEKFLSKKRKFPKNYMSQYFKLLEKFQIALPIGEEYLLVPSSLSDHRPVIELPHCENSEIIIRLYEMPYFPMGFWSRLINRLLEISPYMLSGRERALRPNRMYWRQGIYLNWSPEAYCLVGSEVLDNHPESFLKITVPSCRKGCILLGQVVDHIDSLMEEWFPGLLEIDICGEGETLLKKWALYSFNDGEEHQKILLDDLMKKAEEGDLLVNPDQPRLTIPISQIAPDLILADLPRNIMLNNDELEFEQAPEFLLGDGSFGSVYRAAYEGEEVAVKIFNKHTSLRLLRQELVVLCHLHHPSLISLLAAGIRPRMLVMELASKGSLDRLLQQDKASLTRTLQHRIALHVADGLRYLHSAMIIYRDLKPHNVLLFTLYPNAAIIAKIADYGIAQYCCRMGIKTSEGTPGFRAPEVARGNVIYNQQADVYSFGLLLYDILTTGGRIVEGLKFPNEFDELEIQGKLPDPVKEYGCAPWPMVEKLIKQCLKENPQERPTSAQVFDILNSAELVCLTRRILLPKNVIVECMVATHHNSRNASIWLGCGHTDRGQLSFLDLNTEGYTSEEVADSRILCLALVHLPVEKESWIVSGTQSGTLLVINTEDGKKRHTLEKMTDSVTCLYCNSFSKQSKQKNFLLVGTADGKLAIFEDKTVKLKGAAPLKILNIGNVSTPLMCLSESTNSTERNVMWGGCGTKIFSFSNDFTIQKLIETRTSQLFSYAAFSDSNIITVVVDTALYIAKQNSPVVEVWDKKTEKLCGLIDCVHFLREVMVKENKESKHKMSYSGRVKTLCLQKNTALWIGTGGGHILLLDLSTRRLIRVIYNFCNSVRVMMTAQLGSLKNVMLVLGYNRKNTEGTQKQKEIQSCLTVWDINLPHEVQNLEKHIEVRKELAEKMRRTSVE
row,Compound,EC50 [µM]
1,"N#Cc1cccc(-c2c[nH]c3nccc(N4CCC(O)CC4)c23)c1 [Example 70, 3-[4-(4-hydroxypiperidin-1-yl)-1H-pyrrolo[2,3-b]pyridin-3-yl]benzonitrile]",0.0853
2,"COC1CCCN(c2ccnc3[nH]cc(-c4cccc(C#N)c4)c23)C1 (stereo not shown) [Example 71, 3-[4-(3-methoxypiperidin-1-yl)-1H-pyrrolo[2,3-b]pyridin-3-yl]benzonitrile]",0.0958
3,"N#Cc1cccc(-c2c[nH]c3nccc(N4C[C@H]5C[C@@H](C4)O5)c23)c1 [Example 72, 3-[4-(6-oxa-3-azabicyclo[3.1.1]hept-3-yl)-1H-pyrrolo[2,3-b]pyridin-3-yl]benzonitrile]",0.0683
4,"N#Cc1cccc(-c2c[nH]c3nccc(N4C[C@@H](F)[C@H](F)C4)c23)c1 [Example 73, 3-{4-[(3R,4R)-3,4-difluoropyrrolidin-1-yl]-1H-pyrrolo[2,3-b]pyridin-3-yl}benzonitrile]",0.0444
5,"N#Cc1cccc(-c2c[nH]c3nccc(N4CCC(F)CC4)c23)c1 [Example 74, 3-[4-(4-fluoropiperidin-1-yl)-1H-pyrrolo[2,3-b]pyridin-3-yl]benzonitrile]",0.039
6,"N#Cc1cccc(-c2c[nH]c3nccc(N4CC[C@@H](F)C4)c23)c1 [Example 75, 3-{4-[(3R)-3-fluoropyrrolidin-1-yl]-1H-pyrrolo[2,3-b]pyridin-3-yl}benzonitrile]",0.0387
7,"C[C@@H]1CN(c2ccnc3[nH]cc(-c4cccc(C#N)c4)c23)CCO1 [Example 76, 3-{4-[(2R)-2-methylmorpholin-4-yl]-1H-pyrrolo[2,3-b]pyridin-3-yl}benzonitrile]",0.0306
8,"N#Cc1cccc(-c2c[nH]c3nccc(N4CCCC4)c23)c1 [Example 77, 3-[4-(pyrrolidin-1-yl)-1H-pyrrolo[2,3-b]pyridin-3-yl]benzonitrile]",0.0141
9,"N#Cc1cccc(-c2c[nH]c3nccc(N4CC[C@H](F)C4)c23)c1 [Example 78, 3-{4-[(3S)-3-fluoropyrrolidin-1-yl]-1H-pyrrolo[2,3-b]pyridin-3-yl}benzonitrile]",0.024
10,"N#Cc1cccc(-c2c[nH]c3nccc(N4CCCC(F)(F)C4)c23)c1 [Example 79, 3-[4-(3,3-difluoropiperidin-1-yl)-1H-pyrrolo[2,3-b]pyridin-3-yl]benzonitrile]",0.0992
11,"C[C@H]1CN(c2ccnc3[nH]cc(-c4cccc(C#N)c4)c23)CCO1 [Example 80, 3-{4-[(2S)-2-methylmorpholin-4-yl]-1H-pyrrolo[2,3-b]pyridin-3-yl}benzonitrile]",0.0105
12,"O=c1cc(-c2c[nH]c3nccc(N4CCOCC4)c23)cc[nH]1 [Example 81, 4-[4-(morpholin-4-yl)-1H-pyrrolo[2,3-b]pyridin-3-yl]pyridin-2(1H)-one]",0.0111
13,"COC(=O)c1cnc2[nH]cc(-c3cccc(C#N)c3)c2c1N1CCOCC1 [Example 82, methyl 3-(3-cyanophenyl)-4-(morpholin-4-yl)-1H-pyrrolo[2,3-b]pyridine-5-carboxylate]",0.0123
14,"N#CCc1cnc2[nH]cc(-c3cccc(C#N)c3)c2c1N1CCOCC1 [Example 83, 3-[5-(cyanomethyl)-4-(morpholin-4-yl)-1H-pyrrolo[2,3-b]pyridin-3-yl]benzonitrile]",0.106
15,"COCc1cnc2[nH]cc(-c3cccc(C#N)c3)c2c1N1CCOCC1 [Example 84, 3-[5-(methoxymethyl)-4-(morpholin-4-yl)-1H-pyrrolo[2,3-b]pyridin-3-yl]benzonitrile]",0.0634
16,"Cn1cc(-c2c[nH]c3nccc(N4CCOCC4)c23)cc1C(N)=O [Example 85, 1-methyl-4-[4-(morpholin-4-yl)-1H-pyrrolo[2,3-b]pyridin-3-yl]-1H-pyrrole-2-carboxamide]",0.0217
17,"N#Cc1cc(-c2c[nH]c3nccc(N4CCOCC4)c23)c[nH]1 [Example 86, 4-[4-(morpholin-4-yl)-1H-pyrrolo[2,3-b]pyridin-3-yl]-1H-pyrrole-2-carbonitrile]",0.00275
18,"Cc1[nH]c2nccc(N3CCOCC3)c2c1-c1cc(C#N)n(C)c1 [Example 87, 1-methyl-4-[2-methyl-4-(morpholin-4-yl)-1H-pyrrolo[2,3-b]pyridin-3-yl]-1H-pyrrole-2-carbonitrile]",0.00546
19,"N#Cc1cccc(-c2c[nH]c3nccc(-c4ccncc4)c23)c1 [Example 88, 3-[4-(pyridin-4-yl)-1H-pyrrolo[2,3-b]pyridin-3-yl]benzonitrile]",0.00993
20,"Cn1cc(-c2c[nH]c3nccc(-c4ccccc4)c23)cn1 [Example 89, 3-(1-methyl-1H-pyrazol-4-yl)-4-phenyl-1H-pyrrolo[2,3-b]pyridine]",0.0137
21,"N#Cc1cccc(-c2c[nH]c3nncc(N4CCOCC4)c23)c1 [Example 90, 3-[4-(morpholin-4-yl)-7H-pyrrolo[2,3-c]pyridazin-5-yl]benzonitrile]",0.0422
22,"N#Cc1cccc(-c2c[nH]c3nccc(-c4cccc(C(=O)NC5CC5)c4)c23)c1 [Example 91, 3-[3-(3-cyanophenyl)-1H-pyrrolo[2,3-b]pyridin-4-yl]-N-cyclopropylbenzamide]",0.0434

row,Compound,EC50 [µM]
1,"N#Cc1cccc(-c2c[nH]c3nncc(N4CCOCC4)c23)c1F [Example 92, 2-fluoro-3-[4-(morpholin-4-yl)-7H-pyrrolo[2,3-c]pyridazin-5-yl]benzonitrile]",0.0437
2,"N#Cc1cccc(-c2c[nH]c3nccc(-c4cccnc4)c23)c1 [Example 93, 3-[4-(pyridin-3-yl)-1H-pyrrolo[2,3-b]pyridin-3-yl]benzonitrile]",0.0456
3,"Cn1cc(-c2c[nH]c3nccc(-c4ccc(F)c(F)c4)c23)cn1 [Example 94, 4-(3,4-difluorophenyl)-3-(1-methyl-1H-pyrazol-4-yl)-1H-pyrrolo[2,3-b]pyridine]",0.0456
4,"Cn1cc(-c2c[nH]c3nccc(-c4cc(F)ccc4F)c23)cn1 [Example 95, 4-(2,5-difluorophenyl)-3-(1-methyl-1H-pyrazol-4-yl)-1H-pyrrolo[2,3-b]pyridine]",0.0495
5,"Cn1cc(-c2c[nH]c3nccc(-c4cccc(F)c4F)c23)cn1 [Example 96, 4-(2,3-difluorophenyl)-3-(1-methyl-1H-pyrazol-4-yl)-1H-pyrrolo[2,3-b]pyridine]",0.0589
6,"Cn1cc(-c2c[nH]c3nccc(-c4cccc(Cl)c4)c23)cn1 [Example 97, 4-(3-chlorophenyl)-3-(1-methyl-1H-pyrazol-4-yl)-1H-pyrrolo[2,3-b]pyridine]",0.0631
7,"COc1cccc(-c2ccnc3[nH]cc(-c4cnn(C)c4)c23)c1F [Example 98, 4-(2-fluoro-3-methoxyphenyl)-3-(1-methyl-1H-pyrazol-4-yl)-1H-pyrrolo[2,3-b]pyridine]",0.0859
8,"CNS(=O)(=O)c1cccc(-c2ccnc3[nH]cc(-c4cccc(C#N)c4)c23)c1 [Example 99, 3-[3-(3-cyanophenyl)-1H-pyrrolo[2,3-b]pyridin-4-yl]-N-methylbenzenesulfonamide]",0.0925
9,"COc1ccc(F)c(F)c1-c1c[nH]c2ncc(C#N)c(C3CC3)c12 [Example 100, 4-cyclopropyl-3-(2,3-difluoro-6-methoxyphenyl)-1H-pyrrolo[2,3-b]pyridine-5-carbonitrile]",0.0992
10,"Cn1cc(-c2ccnc3[nH]cc(-c4cccc(C#N)c4)c23)cn1 [Example 101, 3-[4-(1-methyl-1H-pyrazol-4-yl)-1H-pyrrolo[2,3-b]pyridin-3-yl]benzonitrile]",0.101
11,"Cn1cc(-c2c[nH]c3nccc(-c4ccncc4)c23)cn1 [Example 102, 3-(1-methyl-1H-pyrazol-4-yl)-4-(pyridin-4-yl)-1H-pyrrolo[2,3-b]pyridine]",0.102
12,"Cn1cc(-c2c[nH]c3nccc(-c4cc(F)cc(F)c4)c23)cn1 [Example 103, 4-(3,5-difluorophenyl)-3-(1-methyl-1H-pyrazol-4-yl)-1H-pyrrolo[2,3-b]pyridine]",0.125
13,"COc1ccc(-c2ccnc3[nH]cc(-c4cnn(C)c4)c23)cc1F [Example 104, 4-(3-fluoro-4-methoxyphenyl)-3-(1-methyl-1H-pyrazol-4-yl)-1H-pyrrolo[2,3-b]pyridine]",0.138
14,"COc1ccc(-c2ccnc3[nH]cc(-c4cnn(C)c4)c23)c(F)c1 [Example 105, 4-(2-fluoro-4-methoxyphenyl)-3-(1-methyl-1H-pyrazol-4-yl)-1H-pyrrolo[2,3-b]pyridine]",0.143
15,"Cn1cc(-c2c[nH]c3nccc(-c4ccoc4)c23)cn1 [Example 106, 4-(furan-3-yl)-3-(1-methyl-1H-pyrazol-4-yl)-1H-pyrrolo[2,3-b]pyridine]",0.144
16,"Cn1cc(-c2c[nH]c3nccc(-c4ccc5scnc5c4)c23)cn1 [Example 107, 5-[3-(1-methyl-1H-pyrazol-4-yl)-1H-pyrrolo[2,3-b]pyridin-4-yl]-1,3-benzothiazole]",0.169
17,"Cn1cc(-c2c[nH]c3nccc(-c4cccc(CC#N)c4)c23)cn1 [Example 108, {3-[3-(1-methyl-1H-pyrazol-4-yl)-1H-pyrrolo[2,3-b]pyridin-4-yl]phenyl}acetonitrile]",0.185
18,"Cn1cc(-c2c[nH]c3nccc(-c4cccc(C#N)c4)c23)cn1 [Example 109, 3-[3-(1-methyl-1H-pyrazol-4-yl)-1H-pyrrolo[2,3-b]pyridin-4-yl]benzonitrile]",0.188
19,"Cn1cc(-c2c[nH]c3nncc(N4CCOCC4)c23)cn1 [Example 110, 5-(1-methyl-1H-pyrazol-4-yl)-4-(morpholin-4-yl)-7H-pyrrolo[2,3-c]pyridazine]",0.201
20,"COCc1cccc(-c2ccnc3[nH]cc(-c4cnn(C)c4)c23)c1 [Example 111, 4-[3-(methoxymethyl)phenyl]-3-(1-methyl-1H-pyrazol-4-yl)-1H-pyrrolo[2,3-b]pyridine]",0.234
21,"Cc1nnc(-c2cccc(-c3ccnc4[nH]cc(-c5cccc(C#N)c5)c34)c2)o1 [Example 112, 3-{4-[3-(5-methyl-1,3,4-oxadiazol-2-yl)phenyl]-1H-pyrrolo[2,3-b]pyridin-3-yl}benzonitrile]",0.234
